Measured values reported in US20230028441A1, “NOVEL HETEROARYL-TRIAZOLE COMPOUNDS AS PESTICIDES” (Bayer Aktiengesellschaft, priority 2019, published 2023).

How the values were obtained:
Assay type in all cases: in vivo
[1] = test system: cattle tick larvae (Rhipicephalus microplus), strain Parkhurst, resistant against synthetic pyrethroids; test: Rhipicephalus (Boophilus) microplus in-vitro contact test, larval cattle tick; details: 5 μg/cm^2 (=500 g/ha), after 48 hours, read-out: efficacy (larvae dead or moribund)
In short: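 Acetone solutions of compound were coated on glass tube walls (900 ppm giving 5 μg/cm^2) and dried. 20–50 pyrethroid-resistant Parkhurst larvae were held per tube at 27° C and 85% relative humidity; after 48 h negative geotaxis scored efficacy as percent larvae dead or moribund.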

[2] = test system: adult cat fleas (Ctenocephalides felis); test: Ctenocephalides felis in-vitro contact test, adult cat flea; details: 5 μg/cm^2 (=500 g/ha), after 48 hours, read-out: efficacy (fleas dead or moribund)
Description: (§1) 9 mg compound is solved in 1 mL acetone and diluted with acetone to the desired concentration. 250 μL of the test solution is filled in 25 mL glass test tubes and homogeneously distributed on the inner walls by rotation and tilting on a shaking device (2 h at 30 rpm). With a compound concentration of 900 ppm, an inner surface of 44.7 cm^2 and a homogeneous distribution, a dose of 5 μg/cm^2 is achieved.
(§2) After the solvent has evaporated, each test tube is filled with 5-10 adult cat fleas (Ctenocephalides felis), closed with a perforated lid and incubated in a lying position at room temperature and relative humidity. After 48 hours efficacy is determined. The fleas are patted on the ground of the tubes and are incubated on a heating plate at 45-50° C. for at most 5 minutes. Immotile or uncoordinated moving fleas, which are not able to escape the heat by climbing upwards, are marked as dead or moribund.
An efficacy of 100% means all fleas are dead or moribund; 0% means no fleas are dead or moribund.

[3] = test system: green peach aphid (Myzus persicae); test: Myzus persicae oral test; details: 120 h
Description: Solvent: 100 parts by weight acetone
To produce a suitable preparation of active compound, 1 part by weight of active compound is mixed with the stated amount of solvent, and the concentrate is diluted with water to the desired concentration.
50 μL compound solution is filled in microtiter plates and 150 μL IPL41 insect medium (33%+15% sugar) is added to obtain a total volume of 200 μL per well. Afterwards the plates are sealed with parafilm through which a mixed population of the green peach aphid (Myzus persicae) can suck on the compound preparation.
After 5 days mortality in % is determined. 100% means all aphids have been killed and 0% means none of the aphids have been killed.

[4] = test system: larvae of the banded cucumber beetle (Diabrotica balteata); test: Diabrotica balteata spray test; details: 168 h, after 7 days, wheat seeds, read-out: efficacy (seedlings grown up); for pest or weed control at 32 µg/disc, 100 g/ha: 100 g/ha (=32 μg/well)
In short: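 Germinated wheat seedlings (5 per well, agar plates) sprayed with compound in acetone/DMF diluted in water with 1000 ppm emulsifier, then infested with 10-20 larvae per unit. Efficacy scored after 7 days as % seedling growth relative to untreated, uninfested control (100% = normal growth, 0% = none).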

[5] = test system: larvae of the southern green stink bug (Nezara viridula); test: Nezara viridula spray test; details: in Hordeum vulgare, 96 h
In short: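 Barley plants infested with Nezara viridula larvae were sprayed with compound in acetone/dimethylformamide, diluted in water containing 1000 ppm alkylarylpolyglycol ether emulsifier. Mortality (%) was scored after 4 days; 100% means all stink bugs killed.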

[6] = test system: brown planthopper (Nilaparvata lugens); test: Nilaparvata lugens spray test; details: in Oryza sativa, 96 h
Description: Solvent: 78.0 parts by weight of acetone • • 1.5 parts by weight of dimethylformamide
Emulsifier: alkylarylpolyglycol ether
To produce a suitable preparation of active compound, 1 part by weight of active compound is mixed with the stated amount of solvents and is diluted with water, containing an emulsifier concentration of 1000 ppm, to the desired concentration. Further test concentrations are prepared by dilution with emulsifier containing water.
Rice plants (Oryza sativa) are sprayed with a preparation of the active ingredient of the desired concentration and the plants are infested with the brown planthopper (Nilaparvata lugens).
After 4 days mortality in % is determined. 100% means all planthoppers have been killed and 0% means none of the planthoppers have been killed.

[7] = test system: fall armyworm larvae (Spodoptera frugiperda); test: Spodoptera frugiperda spray test (maize leaf sections); details: 168 h
In short: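 Maize leaf sections were sprayed with compound formulated in acetone/DMF and diluted in water containing 1000 ppm emulsifier. Once dry, sections were infested with fall armyworm larvae. Mortality (%) was scored after 7 days.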

[8] = test system: adult engorged female ticks (Rhipicephalus microplus); test: Rhipicephalus (Boophilus) microplus injection test; details: 168 h, egg deposition after 7 days, read-out: efficacy (infertile eggs); for pest or weed control at 0.004 mg: 4 μg/animal; for pest or weed control at 0.02 mg: 20 μg/animal
In short: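 Compound was dissolved in DMSO at 10 mg per 0.5 mL and diluted with DMSO to the test concentration. Five engorged adult females received a 1 μL abdominal injection and were kept in a climate chamber. After 7 days, fertile egg deposition was scored, with unclear eggs held until hatching at about 42 days; 100% efficacy means all eggs were infertile.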

[9] = test system: adult unfed cat fleas (Ctenocephalides felis); test: Ctenocephalides felis oral test; details: 48 h, 100 ppm in cattle blood, after 2 days
In short: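 About 20 adult unfed Ctenocephalides felis fed through parafilm on cattle blood dosed with compound (DMSO stock diluted in blood), blood chamber at 37°C, fleas at room temperature. Mortality (%) scored after 2 days; 100% means all fleas killed.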

[10] = test system: adult brown dog ticks (Rhipicephalus sanguineus); test: Rhipicephalus sanguineus in-vitro contact test with adult brown dog ticks; details: after 48 hours, read-out: efficacy (ticks dead or moribund)
Description: as §1
as §2, with “brown dog ticks (Rhipicephalus sanguineus),” for “cat fleas (Ctenocephalides felis),”, “ticks” for “fleas”, “ticks,” for “fleas,”
An efficacy of 100% means all ticks are dead or moribund; 0% means no ticks are dead or moribund.

| Compound | pest or weed control at 5 µg/cm2 [1] [%] | pest or weed control at 5 µg/cm2 [2] [%] | pest or weed control at 32 µg/disc, 100 g/ha [4] [%] | mortality at 500 g/ha [5] [%] | mortality at 500 g/ha [6] [%] | mortality at 100 g/ha [7] [%] | pest or weed control at 0.004 mg [8] [%] | other results |
| --- | --- | --- | --- | --- | --- | --- | --- | --- |
| CC(NC(=O)c1cc(Br)cc(C2(C(F)(F)F)CC2)c1)c1nc(N)nn1-c1ncccn1 (centres unmarked) [I-112] | 100 | 90 | – | – | – | – | – | – |
| CC(NC(=O)c1cc(Br)cc(Br)c1)c1nc(N)nn1-c1ccc(C(=O)N2CCOCC2)cn1 (racemic) [I-107, N-[1-[5-amino-2-[5-(morpholine-4-carbonyl)-2-pyridyl]-1,2,4-triazol-3-yl]ethyl]-3,5-dibromo-benzamide] | – | 90 | – | – | – | – | – | mortality at 4 ppm [3]: 90% |
| CNc1nc([C@H](C)NC(=O)c2cc(C3CC3)cc(S(=O)(=O)C(F)(F)F)c2)n(-c2ncccn2)n1 [I-183] | – | – | 100 | 100 | 100 | 100 | – | – |
| CC(NC(=O)c1cc(Br)cc(C(F)(F)F)c1)c1nc(N(C)C(=O)OC(C)(C)C)nn1-c1ncccn1 (centres unmarked) [I-089] | – | 90 | 100 | – | – | 100 | 100 | mortality at 100 ppm [9]: 100%; mortality at 4 ppm [3]: 100% |
| C[C@H](NC(=O)c1cc(C(F)(F)F)cc(C(F)(F)F)c1)c1nc(N(C)C)nn1-c1ncc(Cl)cn1 [I-176] | – | – | 100 | 100 | 100 | 100 | – | – |
| CNc1nc([C@H](C)NC(=O)c2cc(Cl)cc(S(=O)(=O)C(F)(F)F)c2)n(-c2ncccn2)n1 [I-186] | – | – | 100 | 100 | 100 | 100 | – | – |
| CNc1nc([C@H](C)NC(=O)c2cc(C(F)(F)F)cc(C(F)(F)F)c2)n(-c2ccc(C#N)cn2)n1 [I-168] | – | – | 100 | 100 | 100 | 100 | – | – |
| CC(NC(=O)c1cc(Cl)cc(C(C)(C)C#N)c1)c1nc(N(C)C)nn1-c1ncc(Cl)cn1 (centres unmarked) [I-170] | – | – | 100 | 100 | 100 | 100 | – | – |
| CC(NC(=O)c1cc(Cl)cc(C(F)(F)F)c1)c1nc(C(N)=O)nn1-c1ccc(C#N)cn1 (centres unmarked) [I-075] | 100 | 90 | 100 | – | – | – | 100 | mortality at 100 ppm [9]: 100% |
| CC(NC(=O)c1cc(Cl)cc(C(F)(F)F)c1)c1nc(C#N)nn1-c1ccc(Cl)cn1 (racemic) [I-071, 3-chloro-N-[1-[2-(5-chloro-2-pyridyl)-5-cyano-1,2,4-triazol-3-yl]ethyl]-5-(trifluoromethyl)benzamide] | 90 | 80 | – | – | – | – | 100 | pest or weed control at 0.02 mg [8]: 100% |
| CC(NC(=O)c1cc(C(F)(F)F)cc(C(F)(F)F)c1)c1nc(N)nn1-c1ccc(C(=O)N2CCOCC2)cn1 (centres unmarked) [I-115] | 100 | 100 | – | 100 | – | 100 | – | pest or weed control at 1 µg/cm2, 100 g/ha ([10]; 1 μg/cm^2 (=100 g/ha)): 100%; pest or weed control at 5 µg/cm2, 500 g/ha ([10]; 5 μg/cm^2 (=500 g/ha)): 100% |
| CSc1nc(C(C)NC(=O)c2cc(Cl)cc(S(C)(=O)=O)c2)n(-c2ccc(Cl)cn2)n1 (racemic) [I-059, 3-chloro-N-[1-[2-(5-chloro-2-pyridyl)-5-methylsulfanyl-1,2,4-triazol-3-yl]ethyl]-5-methylsulfonyl-benzamide] | 100 | 80 | 100 | 100 | – | – | 100 | pest or weed control at 0.02 mg [8]: 100%; pest or weed control at 160 µg/disc, 500 g/ha ([4]; 500 g/ha (=160 μg/well)): 100%; mortality at 4 ppm [3]: 100%; mortality at 100 g/ha [5]: 100%; mortality at 500 g/ha [7]: 100% |
| C[C@H](NC(=O)c1cc(OC(F)(F)F)cc(C2CC2)c1)c1nc(N(C)C)nn1-c1ncc(Cl)cn1 [I-177] | – | – | 100 | 100 | 100 | 100 | – | – |
